Molecular target: T1, PHF5A_C26 (Homo sapiens, UniProt O75533+Q7RTV0)
T1 construct: endogenous in cells
Assay: IA-DTB cysteine reactivity profiling
Format: binding
Method: Sample preparation: Cells (adherent: 15 cm dishes, suspension: 2 million cells/mL) were treated with electrophilic probes in situ for indicated times and concentrations, washed with ice-cold PBS, and flash frozen in liquid nitrogen. Cell pellets were lysed by sonication (8 pulses, 40% power) in 500 μL ice-cold PBS supplemented with cOmplete protease inhibitors (1 tablet/10 mL of PBS). Whole cell lysates protein content was measured using a standard DC protein assay (Bio-Rad) and 500 μL (2 mg/mL protein content) were treated with 5 μL of 10 mM 1A-DTB (in DMSO) for 1 h at ambient temperature with occasional vortexing. Samples were methanol-chloroform precipitated with the addition of 500 μL ice-cold MeOH and 200 μL CHCl3, vortexed, and centrifuged (10 min, 10,000 g). Without disrupting the protein disk, both top and bottom layers were aspirated and the protein disk was washed with 1 mL ice-cold MeOH and centrifuged (10 min, 10,000 g). The pellets were allowed to air dry, and then re-suspended in 90 μL buffer (9 M urea, 10 mM DTT, 50 mM TEAB pH 8.5). […]
Data processing: Cysteine engagement ratios (probe vs DMSO) were calculated for each peptide-spectra match by dividing each TMT reporter ion intensity by the average intensity for the channels corresponding to DMSO treatment. […]

T1 sequence (Q7RTV0 whole entry): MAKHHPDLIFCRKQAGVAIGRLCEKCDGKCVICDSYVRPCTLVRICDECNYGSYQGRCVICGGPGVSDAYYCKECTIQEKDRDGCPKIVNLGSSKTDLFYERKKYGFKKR
T1 sequence (O75533 whole entry): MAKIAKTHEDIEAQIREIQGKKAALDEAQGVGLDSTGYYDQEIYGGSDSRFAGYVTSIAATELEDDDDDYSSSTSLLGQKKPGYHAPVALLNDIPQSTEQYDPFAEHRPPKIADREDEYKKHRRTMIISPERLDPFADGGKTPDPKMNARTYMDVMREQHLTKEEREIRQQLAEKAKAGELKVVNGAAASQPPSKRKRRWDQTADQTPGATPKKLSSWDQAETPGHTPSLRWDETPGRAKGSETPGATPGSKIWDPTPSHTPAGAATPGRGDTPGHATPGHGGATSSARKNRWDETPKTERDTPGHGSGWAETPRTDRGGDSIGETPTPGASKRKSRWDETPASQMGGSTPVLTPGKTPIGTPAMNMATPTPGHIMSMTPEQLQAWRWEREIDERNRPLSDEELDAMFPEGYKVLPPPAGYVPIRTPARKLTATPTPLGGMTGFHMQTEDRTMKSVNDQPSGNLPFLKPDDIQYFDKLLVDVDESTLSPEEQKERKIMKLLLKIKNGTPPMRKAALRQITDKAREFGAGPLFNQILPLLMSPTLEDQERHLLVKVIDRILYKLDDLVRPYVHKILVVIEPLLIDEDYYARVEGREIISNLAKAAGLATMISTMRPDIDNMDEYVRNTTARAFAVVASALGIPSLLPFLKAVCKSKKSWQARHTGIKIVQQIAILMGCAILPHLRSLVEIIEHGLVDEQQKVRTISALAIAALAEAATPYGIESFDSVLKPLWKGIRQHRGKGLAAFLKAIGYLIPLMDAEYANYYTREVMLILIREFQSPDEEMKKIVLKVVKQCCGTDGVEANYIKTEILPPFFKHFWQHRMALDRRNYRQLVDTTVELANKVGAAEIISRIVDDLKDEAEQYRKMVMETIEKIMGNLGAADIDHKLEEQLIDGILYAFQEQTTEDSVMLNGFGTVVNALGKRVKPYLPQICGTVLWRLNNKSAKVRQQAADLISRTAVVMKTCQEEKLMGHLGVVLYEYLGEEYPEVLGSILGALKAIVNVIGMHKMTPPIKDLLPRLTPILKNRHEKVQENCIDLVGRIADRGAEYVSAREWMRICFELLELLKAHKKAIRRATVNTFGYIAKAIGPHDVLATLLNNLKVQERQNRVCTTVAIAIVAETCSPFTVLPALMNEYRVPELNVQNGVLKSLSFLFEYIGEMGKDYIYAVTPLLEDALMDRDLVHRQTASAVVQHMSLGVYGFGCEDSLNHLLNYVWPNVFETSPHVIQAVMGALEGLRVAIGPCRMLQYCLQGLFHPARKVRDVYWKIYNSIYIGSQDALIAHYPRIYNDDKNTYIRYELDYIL
T1 sequence (Q15393 whole entry partner): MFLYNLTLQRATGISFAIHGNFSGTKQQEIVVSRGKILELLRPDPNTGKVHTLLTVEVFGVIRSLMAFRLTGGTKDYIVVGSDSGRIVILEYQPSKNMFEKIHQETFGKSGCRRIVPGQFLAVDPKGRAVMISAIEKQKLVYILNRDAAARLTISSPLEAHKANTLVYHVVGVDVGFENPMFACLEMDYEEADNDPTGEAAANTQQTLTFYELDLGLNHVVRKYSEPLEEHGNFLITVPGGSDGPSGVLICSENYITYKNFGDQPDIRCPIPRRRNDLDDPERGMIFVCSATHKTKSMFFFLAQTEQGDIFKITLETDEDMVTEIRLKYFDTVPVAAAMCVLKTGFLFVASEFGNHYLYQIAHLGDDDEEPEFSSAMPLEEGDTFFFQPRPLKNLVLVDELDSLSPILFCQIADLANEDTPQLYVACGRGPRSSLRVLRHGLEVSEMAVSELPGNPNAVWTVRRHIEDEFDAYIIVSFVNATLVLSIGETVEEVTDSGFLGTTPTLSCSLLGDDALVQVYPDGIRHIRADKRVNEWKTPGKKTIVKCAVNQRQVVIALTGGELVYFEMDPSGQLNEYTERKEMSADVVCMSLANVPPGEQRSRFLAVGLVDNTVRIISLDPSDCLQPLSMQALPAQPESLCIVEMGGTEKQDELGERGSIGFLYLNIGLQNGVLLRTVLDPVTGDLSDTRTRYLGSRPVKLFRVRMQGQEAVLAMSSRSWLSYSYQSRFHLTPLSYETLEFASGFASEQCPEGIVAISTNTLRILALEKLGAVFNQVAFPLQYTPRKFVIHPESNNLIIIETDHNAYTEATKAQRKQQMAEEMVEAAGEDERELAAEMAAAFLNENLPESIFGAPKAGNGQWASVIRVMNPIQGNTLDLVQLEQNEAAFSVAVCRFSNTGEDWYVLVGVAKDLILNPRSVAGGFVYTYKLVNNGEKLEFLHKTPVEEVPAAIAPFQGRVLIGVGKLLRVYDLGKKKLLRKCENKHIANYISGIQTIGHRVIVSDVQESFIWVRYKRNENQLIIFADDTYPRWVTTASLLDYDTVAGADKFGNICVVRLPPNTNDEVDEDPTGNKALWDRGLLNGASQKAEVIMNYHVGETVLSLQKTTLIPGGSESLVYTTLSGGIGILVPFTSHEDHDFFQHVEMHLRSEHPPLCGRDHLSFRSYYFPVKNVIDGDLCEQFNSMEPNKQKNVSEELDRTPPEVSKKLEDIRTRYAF
T1 sequence (Q9BWJ5 whole entry partner): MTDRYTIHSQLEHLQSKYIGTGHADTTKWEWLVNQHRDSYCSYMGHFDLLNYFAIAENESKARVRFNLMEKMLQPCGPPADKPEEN

## C=CC(=O)N1[C@H](c2ccc3c(c2)OCO3)c2[nH]c3ccccc3c2C[C@H]1C(=O)N1CCOCC1 [WX-02-23, 1-((1R,3S)-1-(benzo[d][1,3]dioxol-S-yl)-3-(morpholine-4-carbonyl)-1,3,4,9-tetrahydro-2H-pyrido [3,4-b]indol-2-yl)prop-2-en-1-one]
  engagement of PHF5A_C26: did not engage

Reference: patent US20250034216A1, “STEREOSELECTIVE COVALENT LIGANDS FOR ONCOGENIC AND IMMUNOLOGICAL PROTEINS” (The Scripps Research Institute, priority 2021, published 2025)
